According to patent publication US20060063766A1, “Use of aryl- and heteroaryl-substituted tetrahydroisoquinolines to block reuptake of norepinephrine, dopamine, and serotonin” (priority 2004, published 2006):
pKi: −log10 of the molar value.

Key:
dopamine transporter = dopamine transporter (Homo sapiens, UniProt Q01959); details: cited from earlier work
[1] = system: tetrabenazine-induced exploratory loss and ptosis in mice; assay: Tetrabenazine assay; details: mouse; result in words
DAT = biological target: T1, DAT (Homo sapiens, UniProt Q01959); assay: biochemical; type: binding
T1 construct: cDNAs containing the complete coding regions of each transporter were amplified by PCR from human brain libraries; expressed in transfected cells; host or cells: HEK293E

SERT = SERT (Homo sapiens, UniProt P31645); assay: biochemical
[2] = in a very small number of patients; cited from earlier work

SERT, sequence (P31645 whole entry): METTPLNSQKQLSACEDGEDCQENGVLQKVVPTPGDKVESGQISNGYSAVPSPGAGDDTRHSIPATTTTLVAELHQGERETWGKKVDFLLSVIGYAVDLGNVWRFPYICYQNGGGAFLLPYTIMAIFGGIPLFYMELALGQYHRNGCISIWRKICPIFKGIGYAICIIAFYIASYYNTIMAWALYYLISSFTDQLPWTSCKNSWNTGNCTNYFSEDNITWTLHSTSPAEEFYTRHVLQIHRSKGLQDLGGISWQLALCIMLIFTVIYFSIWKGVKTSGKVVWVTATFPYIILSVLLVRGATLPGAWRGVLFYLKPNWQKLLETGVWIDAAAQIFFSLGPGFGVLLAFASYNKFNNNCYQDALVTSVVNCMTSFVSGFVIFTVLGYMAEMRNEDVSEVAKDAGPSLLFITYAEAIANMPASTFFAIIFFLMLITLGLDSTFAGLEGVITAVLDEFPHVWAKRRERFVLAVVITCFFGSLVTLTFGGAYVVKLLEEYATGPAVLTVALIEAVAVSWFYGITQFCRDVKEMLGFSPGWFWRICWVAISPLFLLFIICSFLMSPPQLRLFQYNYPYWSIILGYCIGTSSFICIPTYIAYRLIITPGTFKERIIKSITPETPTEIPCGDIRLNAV
T1 sequence (Q01959 whole entry): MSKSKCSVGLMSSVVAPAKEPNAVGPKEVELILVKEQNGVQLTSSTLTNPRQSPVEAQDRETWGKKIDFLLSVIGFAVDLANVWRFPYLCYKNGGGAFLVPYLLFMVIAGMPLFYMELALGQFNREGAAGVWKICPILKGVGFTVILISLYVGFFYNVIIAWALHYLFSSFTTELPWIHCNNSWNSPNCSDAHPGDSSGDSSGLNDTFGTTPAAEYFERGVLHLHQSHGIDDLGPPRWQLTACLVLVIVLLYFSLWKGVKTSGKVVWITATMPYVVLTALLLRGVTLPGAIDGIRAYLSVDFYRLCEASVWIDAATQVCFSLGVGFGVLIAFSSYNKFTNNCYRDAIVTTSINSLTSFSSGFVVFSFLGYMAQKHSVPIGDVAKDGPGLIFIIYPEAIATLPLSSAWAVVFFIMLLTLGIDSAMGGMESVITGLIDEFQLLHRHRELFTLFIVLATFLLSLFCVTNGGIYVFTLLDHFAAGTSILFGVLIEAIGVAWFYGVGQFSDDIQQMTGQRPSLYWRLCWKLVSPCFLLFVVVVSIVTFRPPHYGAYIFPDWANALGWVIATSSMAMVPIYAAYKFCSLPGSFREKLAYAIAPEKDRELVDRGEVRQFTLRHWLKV
dopamine transporter, sequence (Q01959 whole entry): as above

SMILES: CNCC[C@@H](Oc1ccccc1C)c1ccccc1 [atomoxetine]
- activity at the dopamine transporter (dopamine transporter): little or no activity

SMILES: COC(=O)C(c1ccccc1)C1CCCCN1 (stereo not shown) [Ritalin]
- biological activity in the tetrabenazine in vivo assay [1]: potent activity

SMILES: CN1Cc2c(N)cccc2C(c2ccccc2)C1 (stereo not shown) [Nomifensine]
- biological activity in the tetrabenazine in vivo assay [1]: potent biological activity

SMILES: CN1Cc2ccccc2C(c2ccc3sncc3c2)C1.O=C(O)/C=C\C(=O)O (single isomer, unassigned; (+)) [Example 135, (+)-4-benzo[d]isothiazol-5-yl-2-methyl-1,2,3,4-tetrahydroisoquinoline, maleate salt]
- pKi (DAT): 7.10
- melting point: 145 to 147 °C
- pKi (SERT): 7.98

SMILES: CN1Cc2c(N)cccc2C(c2ccccc2)C1 (stereo not shown) [Nomifensine®]
- serious side effect of long term administration [2]: fatal immune hemolytic anemia
